Laboratory results reported in PubChem BioAssay (NCI).
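How tested: cells in 96-well plates exposed to compound for 48 hours at five concentrations. GI50: concentration for 50% inhibition of growth. TGI marks complete inhibition of growth.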

Tests used:
Assay in all cases: NCI anticancer screen, dose series, 48 h
786-0 renal = system: 786-0 renal
A498 renal = system: A498 renal
A549 NSCLC = system: A549 NSCLC
ACHN renal = system: ACHN renal
BT-549 breast = system: BT-549 breast
CAKI-1 renal = system: CAKI-1 renal
CCRF-CEM leukemia = system: CCRF-CEM leukemia
COLO 205 colon = system: COLO 205 colon
DU-145 prostate = system: DU-145 prostate
EKVX NSCLC = system: EKVX NSCLC
HCC-2998 colon = system: HCC-2998 colon
HCT-116 colon = system: HCT-116 colon
HCT-15 colon = system: HCT-15 colon
HL-60(TB) leukemia = system: HL-60(TB) leukemia
HOP-62 NSCLC = system: HOP-62 NSCLC
HOP-92 NSCLC = system: HOP-92 NSCLC
HS 578T breast = system: HS 578T breast
HT29 colon = system: HT29 colon
IGROV1 ovarian = system: IGROV1 ovarian
K-562 leukemia = system: K-562 leukemia
KM12 colon = system: KM12 colon
LOX IMVI melanoma = system: LOX IMVI melanoma
M14 melanoma = system: M14 melanoma
MALME-3M melanoma = system: MALME-3M melanoma
MCF7 breast = system: MCF7 breast
MDA-MB-231 breast = system: MDA-MB-231 breast
MDA-MB-435 = system: MDA-MB-435
MOLT-4 leukemia = system: MOLT-4 leukemia
NCI-H226 lung = system: NCI-H226 lung
NCI-H23 lung = system: NCI-H23 lung
NCI-H460 lung = system: NCI-H460 lung
NCI-H522 lung = system: NCI-H522 lung
NCI/ADR-RES ovarian = system: NCI/ADR-RES ovarian
OVCAR-3 ovarian = system: OVCAR-3 ovarian
OVCAR-4 ovarian = system: OVCAR-4 ovarian
OVCAR-5 ovarian = system: OVCAR-5 ovarian
OVCAR-8 ovarian = system: OVCAR-8 ovarian
PC-3 prostate = system: PC-3 prostate
RPMI-8226 leukemia = system: RPMI-8226 leukemia
RXF 393 renal = system: RXF 393 renal
SF-268 CNS = system: SF-268 CNS
SF-295 CNS = system: SF-295 CNS
SF-539 CNS = system: SF-539 CNS
SK-MEL-2 melanoma = system: SK-MEL-2 melanoma
SK-MEL-28 melanoma = system: SK-MEL-28 melanoma
SK-MEL-5 melanoma = system: SK-MEL-5 melanoma
SK-OV-3 ovarian = system: SK-OV-3 ovarian
SN12C renal = system: SN12C renal
SNB-19 CNS = system: SNB-19 CNS
SNB-75 CNS = system: SNB-75 CNS
SR leukemia = system: SR leukemia
SW-620 colon = system: SW-620 colon
T-47D breast = system: T-47D breast
TK-10 renal = system: TK-10 renal
U251 CNS = system: U251 CNS
UO-31 renal = system: UO-31 renal

## C=C1C(=O)O[C@H]2[C@H]1CC/C(Cn1cc(-c3ccc(N)cc3)nn1)=C\CC[C@@]1(C)O[C@@H]21
786-0 renal
  GI50: 1.98 µM
  TGI: 4.62 µM
A498 renal
  GI50: 10.4 µM
  TGI: 26.1 µM
A549 NSCLC
  GI50: 11.9 µM
  TGI: 28.1 µM
ACHN renal
  GI50: 2.65 µM
  TGI: 12 µM
BT-549 breast
  GI50: 3.05 µM
  TGI: 11.7 µM
CAKI-1 renal
  GI50: 1.77 µM
  TGI: 7.03 µM
CCRF-CEM leukemia
  GI50: 2 µM
  TGI: 20.3 µM
COLO 205 colon
  GI50: 1.79 µM
  TGI: 4.05 µM
DU-145 prostate
  GI50: 3.65 µM
  TGI: 14.1 µM
EKVX NSCLC
  GI50: 3.89 µM
  TGI: 18.5 µM
HCC-2998 colon
  GI50: 3.49 µM
  TGI: 12 µM
HCT-116 colon
  GI50: 1.55 µM
  TGI: 4.22 µM
HCT-15 colon
  GI50: 1.42 µM
  TGI: 3.37 µM
HL-60(TB) leukemia
  GI50: 2.23 µM
  TGI: 6.43 µM
HOP-62 NSCLC
  GI50: 10.2 µM
  TGI: 23.8 µM
HOP-92 NSCLC
  GI50: 2.13 µM
  TGI: 5.33 µM
HS 578T breast
  GI50: 4.46 µM
  TGI: 27.4 µM
HT29 colon
  GI50: 2.14 µM
  TGI: 5.47 µM
IGROV1 ovarian
  GI50: 2.96 µM
  TGI: 14.1 µM
K-562 leukemia
  GI50: 2.99 µM
  TGI: > 100 µM
KM12 colon
  GI50: 11.4 µM
  TGI: 26.9 µM
LOX IMVI melanoma
  GI50: 1.51 µM
  TGI: 2.88 µM
M14 melanoma
  GI50: 2.97 µM
  TGI: 10.8 µM
MALME-3M melanoma
  GI50: 2.18 µM
  TGI: 5.42 µM
MCF7 breast
  GI50: 2.41 µM
  TGI: 9.13 µM
MDA-MB-231 breast
  GI50: 3.45 µM
  TGI: 15.8 µM
MDA-MB-435
  GI50: 3.01 µM
  TGI: 11.5 µM
MOLT-4 leukemia
  GI50: 2.87 µM
  TGI: 28.6 µM
NCI-H226 lung
  GI50: 3.34 µM
  TGI: 13.2 µM
NCI-H23 lung
  GI50: 2.49 µM
  TGI: 7.72 µM
NCI-H460 lung
  GI50: 10.4 µM
  TGI: 29.7 µM
NCI-H522 lung
  GI50: 1.37 µM
  TGI: 3.07 µM
NCI/ADR-RES ovarian
  GI50: 14.5 µM
  TGI: 38.2 µM
OVCAR-3 ovarian
  GI50: 1.62 µM
  TGI: 3.99 µM
OVCAR-4 ovarian
  GI50: 4.9 µM
  TGI: 18.6 µM
OVCAR-5 ovarian
  GI50: 6.43 µM
  TGI: 22.9 µM
OVCAR-8 ovarian
  GI50: 3.04 µM
  TGI: 12.4 µM
PC-3 prostate
  GI50: 10.1 µM
  TGI: 24.6 µM
RPMI-8226 leukemia
  GI50: 2.75 µM
  TGI: 10.4 µM
RXF 393 renal
  GI50: 1.41 µM
  TGI: 3.02 µM
SF-268 CNS
  GI50: 3.7 µM
  TGI: 16.3 µM
SF-295 CNS
  GI50: 12.1 µM
  TGI: 26.5 µM
SF-539 CNS
  GI50: 2.77 µM
  TGI: 8.75 µM
SK-MEL-2 melanoma
  GI50: 10.6 µM
  TGI: 28.9 µM
SK-MEL-28 melanoma
  GI50: 2.71 µM
  TGI: 7.54 µM
SK-MEL-5 melanoma
  GI50: 3.47 µM
  TGI: 12.7 µM
SK-OV-3 ovarian
  GI50: 18.3 µM
  TGI: 34.4 µM
SN12C renal
  GI50: 3.48 µM
  TGI: 15.1 µM
SNB-19 CNS
  GI50: 12.7 µM
  TGI: 41.1 µM
SNB-75 CNS
  GI50: 4.98 µM
  TGI: 22.4 µM
SR leukemia
  GI50: 0.702 µM
  TGI: > 100 µM
SW-620 colon
  GI50: 2.16 µM
  TGI: 6.01 µM
T-47D breast
  GI50: 2.23 µM
  TGI: 5.77 µM
TK-10 renal
  GI50: 2.25 µM
  TGI: 5.43 µM
U251 CNS
  GI50: 4.16 µM
  TGI: 16.5 µM
UO-31 renal
  GI50: 1.87 µM
  TGI: 10.1 µM
